How the values were obtained:
[1] = Inhibition of quorum sensing system in Pseudomonas aeruginosa PAO1 harboring mini-ctx-lasB-lacZ at 10 uM measured after 16 hrs by ONPG test relative to control
Pseudomonas aeruginosa [2] = assay: Antibacterial activity against Pseudomonas aeruginosa PAO1 incubated for 24 hrs by absorbance based assay; format: functional
Pseudomonas aeruginosa [3] = assay: Antibiofilm activity against Pseudomonas aeruginosa PAO1 harboring wspF mutant assessed as inhibition rate at 1.25 uM incubated for 24 hrs by absorbance based assay relative to control; format: functional
Pseudomonas aeruginosa [4] = assay: Antibiofilm activity against Pseudomonas aeruginosa PAO1 harboring wspF mutant assessed as inhibition rate at 10 uM incubated for 24 hrs by absorbance based assay relative to control; format: functional

SMILES | inhibition [1] [%] | MIC (Pseudomonas aeruginosa [2]) [µM] | inhibition at 1.25 µM (Pseudomonas aeruginosa [3]) [%] | inhibition at 10 µM (Pseudomonas aeruginosa [4]) [%]
C[n+]1c(/C=C/c2ccc3c(c2)CCO3)sc2ccccc21 | 3.6 | > 128 | – | –
C[n+]1c(/C=C/c2ccc3nc[nH]c3c2)sc2ccccc21 | 3.2 | > 128 | – | –
C[n+]1c(/C=C/c2c[nH]c3cc(Br)ccc23)ccc2ccccc21 | 0.5 | > 128 | ~21 | –
C[n+]1c(/C=C/c2c[nH]c3ccc([N+](=O)[O-])cc23)ccc2ccccc21 | 4.62 | > 128 | – | –
C[n+]1c(/C=C/c2cscn2)ccc2ccccc21 | 4.55 | > 128 | – | –
CC[C@H]1OC(=O)[C@H](C)[C@@H](O[C@H]2C[C@@](C)(OC)[C@@H](O)[C@H](C)O2)[C@H](C)[C@@H](O[C@@H]2O[C@H](C)C[C@H](N(C)C)[C@H]2O)[C@](C)(O)C[C@@H](C)CN(C)[C@H](C)[C@@H](O)[C@]1(C)O [AZITHROMYCIN] | – | – | – | 43.9
COc1ccc2c(/C=C/c3ccc4ccccc4[n+]3C)c[nH]c2c1 | 17.9 | > 128 | ~21 | –
C[n+]1c(/C=C/c2ccc3ccc(=O)oc3c2)ccc2ccccc21 | 2.74 | > 128 | – | –
C[n+]1c(/C=C/c2ccc3ccc(=O)oc3c2)sc2ccccc21 | 2.42 | > 128 | – | –
C[n+]1c(/C=C/c2cscn2)sc2ccccc21 | 3.65 | > 128 | – | –
Cc1cc(=O)c(O)c(/C=C/c2ccc3ccccc3[n+]2C)o1 | 4.86 | > 128 | – | –
C[n+]1c(/C=C/c2c[nH]c3ccc(O)cc23)ccc2ccccc21 | 7.32 | > 128 | – | –
C[n+]1c(/C=C/c2cc(=O)c(O)co2)ccc2ccccc21 | 0.45 | > 128 | – | –
C[n+]1c(/C=C/c2coc3ccccc3c2=O)ccc2ccccc21 | 1.21 | > 128 | – | –
C[n+]1c(/C=C/c2cc3ccccc3[nH]2)ccc2ccccc21 | 1.42 | > 128 | – | –
C[n+]1c(/C=C/c2cccc3c2CCO3)ccc2ccccc21 | 9.4 | > 128 | – | –

Reference: ChEMBL document CHEMBL6078637, “Cyclic Diguanylate G-Quadruplex Inducer-Quorum Sensing Inhibitor Hybrids as Bifunctional Anti-biofilm and Anti-virulence Agents Against Pseudomonas aeruginosa” (J Med Chem, 2024)
